Like-named read-outs stand apart in the source and are kept apart here.
How the values were obtained:
Assay type in all cases: cell-based
[1] = test system: Panc2.03; assay: Proliferation assay (CellTiter Glo), Panc2.03; conditions: for Top inhibition %: 96 hours
Method: (§1) Briefly, cells at a density of 1,000-10,000 cells/well were seeded in 96-well plates and incubated at 37′C for 24 hours. A series of 9 different concentrations of compound stocks (500×) were created by 3-fold serial dilution in DMSO. These compounds were further diluted in culture media and then added to cells so that the final DMSO concentration was 0.2%. After 96 hours of incubation, 50 μL of CellTiter Glo reagent (Promega) was added to each well and luminescence was measured after 10 minutes using EnVision (PerkinElmer). […] The dose range for most compounds was 4.6 nM-30 μM. The dose ranges for some compounds were adjusted downward to 0.46 nM-3 μM or 0.08 nM-0.5 μM or 0.03 nM-0.2 μM. Luminescence from cells treated with […] alone was set as Max and % of inhibition was calculated as follows: Inhibition %=(Max-Sample value)/Max*100. Data was analyzed using XL-fit software (ID Business Solutions Ltd.) and EC50, relative EC50, and % of top inhibition were calculated. The results are shown in Tables 3-6 for pancreatic cancer, lung cancer, colon/gastric cancer, and leukemia cell lines.

[2] = test system: K-Ras mutant pancreatic, lung, and colon cancer cell lines, leukemia cell lines; assay: Proliferation assays, panel of cancer cell lines (summary statements)
Method: as §1

[3] = test system: H358; assay: Proliferation assay (CellTiter Glo), H358
Method: as §1

[4] = test system: HCT116; assay: Proliferation assay (CellTiter Glo), HCT116
Method: as §1

[5] = test system: HL60; assay: Proliferation assay (CellTiter Glo), HL60
Method: as §1

[6] = test system: AGS; assay: Proliferation assay (CellTiter Glo), AGS
Method: as §1

[7] = test system: H838; assay: Proliferation assay (CellTiter Glo), H838; conditions: H838 (WT K-ras)
Method: as §1, with “calculated.” for “calculated. The results are shown in Tables 3-6 for pancreatic cancer, lung cancer, colon/gastric cancer, and leukemia cell lines.”
(§2) Other cancer cell lines having wild-type K-ras status and K-ras mutation at G12 were also screened using the PKC activator compounds. […] K-104 was tested in a range of 0.03 nM-0.2 μM. […] The dose ranges were adjusted downward to 0.46 nM-3 μM for K-102 and 0.08 nM-0.5 μM for K-103 for some cell lines.

[8] = test system: LS180; assay: Proliferation assay (CellTiter Glo), LS180
Method: as §1

[9] = test system: A549; assay: Proliferation assay (CellTiter Glo), A549
Method: as §1

[10] = test system: SW900; assay: Proliferation assay (CellTiter Glo), SW900; conditions: SW900 (K-ras: G12V)
Method: as §1, with “calculated.” for “calculated. The results are shown in Tables 3-6 for pancreatic cancer, lung cancer, colon/gastric cancer, and leukemia cell lines.”
as §2

[11] = test system: SW620; assay: Proliferation assay (CellTiter Glo), SW620
Method: as §1

[12] = test system: KP-4; assay: Proliferation assay (CellTiter Glo), KP-4
Method: as §1

[13] = test system: H727; assay: Proliferation assay (CellTiter Glo), H727
Method: as §1

[14] = test system: H441; assay: Proliferation assay (CellTiter Glo), H441
Method: as §1

[15] = test system: RPMI8226; assay: Proliferation assay (CellTiter Glo), RPMI8226; conditions: RPMI8226 (K-ras: G12A)
Method: as §1, with “calculated.” for “calculated. The results are shown in Tables 3-6 for pancreatic cancer, lung cancer, colon/gastric cancer, and leukemia cell lines.”
as §2

[16] = test system: Capan-1; assay: Proliferation assay (CellTiter Glo), Capan-1
Method: as §1

[17] = test system: MiaPaCa-2; assay: Proliferation assay (CellTiter Glo), MiaPaCa-2
Method: as §1, with “calculated.” for “calculated. The results are shown in Tables 3-6 for pancreatic cancer, lung cancer, colon/gastric cancer, and leukemia cell lines.”

[18] = test system: BxPC-3; assay: Proliferation assay (CellTiter Glo), BxPC-3; conditions: BxPC-3 (WT K-ras)
Method: as §1, with “calculated.” for “calculated. The results are shown in Tables 3-6 for pancreatic cancer, lung cancer, colon/gastric cancer, and leukemia cell lines.”
as §2

[19] = test system: THP1; assay: Proliferation assay (CellTiter Glo), THP1
Method: as §1

[20] = test system: Colo205; assay: Proliferation assay (CellTiter Glo), Colo205; conditions: Colo205 (WT K-ras)
Method: as §1, with “calculated.” for “calculated. The results are shown in Tables 3-6 for pancreatic cancer, lung cancer, colon/gastric cancer, and leukemia cell lines.”
as §2

[21] = test system: H1915; assay: Proliferation assay (CellTiter Glo), H1915; conditions: H1915 (WT K-ras)
Method: as §1, with “calculated.” for “calculated. The results are shown in Tables 3-6 for pancreatic cancer, lung cancer, colon/gastric cancer, and leukemia cell lines.”
as §2

[22] = test system: HT29; assay: Proliferation assay (CellTiter Glo), HT29; conditions: HT29 (WT K-ras)
Method: as §1, with “calculated.” for “calculated. The results are shown in Tables 3-6 for pancreatic cancer, lung cancer, colon/gastric cancer, and leukemia cell lines.”
as §2

[23] = test system: CCRF-CEM; assay: Proliferation assay (CellTiter Glo), CCRF-CEM
Method: as §1

[24] = test system: Panc2.13; assay: Proliferation assay (CellTiter Glo), Panc2.13
Method: as §1

[25] = test system: AsPC-1; assay: Proliferation assay (CellTiter Glo), AsPC-1
Method: as §1

[26] = absolute EC50, 96 hours, read-out: Ab EC50
[27] = relative EC50, 96 hours, read-out: Re EC50

Compound `CC(=O)O[C@H]1C(=O)[C@@]2(C)[C@H]([C@H](OC(=O)c3ccccc3)[C@]3(O)C[C@H](OC(=O)[C@H](O)[C@@H](NC(=O)c4ccccc4)c4ccccc4)C(C)=C1C3(C)C)[C@]1(OC(C)=O)CO[C@@H]1C[C@@H]2O` [Paclitaxel, reference compound] has a Top inhibition % [1] of 64.6%.
In the case of `CCC/C=C/C=C/C(=O)O[C@H]1/C(=C/C(=O)OC)C[C@H]2C[C@H]([C@@H](C)O)OC(=O)C[C@H](O)C[C@@H]3C[C@H](OC(C)=O)C(C)(C)[C@](O)(C[C@@H]4C/C(=C/C(=O)OC)C[C@H](/C=C/C(C)(C)[C@]1(O)O2)O4)O3` [Compound K-104, Bryostatin 1], the “potency in proliferation inhibition relative to prostratin” value [2] is reported as “less potent in proliferation inhibition” and the “activity in cancer cell lines” value ([2]; cell lines with wild-type K-ras and K-ras G12 mutations (Table 7)) is reported as “much lower activity”.
Compound `CC(=O)O[C@@]12C[C@@H](C)[C@]3(O)C4C=C(C)C(O)[C@@]4(O)CC(CO)=C[C@H]3[C@@H]1C2(C)C` (some centres unmarked) [Compound K-101C] has a Top inhibition % ([3]; 96 hours) of 44.0%, an EC50 [3, 26] greater than 30 µM and an EC50 [3, 27] of 4.98 µM. The Top inhibition % ([4]; 96 hours) was 12.2%, the EC50 [4, 26] was greater than 30 µM and the Top inhibition % ([5]; 96 hours) was 63.9%. The EC50 [5, 26] was 17 µM, the EC50 [5, 27] was 13 µM and the Top inhibition % ([6]; 96 hours) was 25.3%. The EC50 [6, 26] was greater than 30 µM, the EC50 [6, 27] was 11 µM and the “Top inhibition %” value [7] was 20.2%. The Top inhibition % ([8]; 96 hours) was 6.8%, the EC50 [8, 26] was greater than 30 µM and the Top inhibition % ([9]; 96 hours) was 70.3%. The EC50 [9, 26] was 13 µM, the EC50 [9, 27] was 6.68 µM and the “Top inhibition %” value [10] was 10.9%. The Top inhibition % ([11]; 96 hours) was 0.0%, the EC50 [11, 26] was greater than 30 µM and the Top inhibition % ([12]; 96 hours) was 70.4%. For the same compound, the EC50 [12, 26] was 11 µM, the EC50 [12, 27] was 6.77 µM and the Top inhibition % ([13]; 96 hours) was 42.8%. For the same compound, the EC50 [13, 26] was greater than 30 µM, the EC50 [13, 27] was 3.61 µM and the Top inhibition % ([14]; 96 hours) was 37.0%. The EC50 [14, 26] was greater than 30 µM, the EC50 [14, 27] was 7.44 µM and the “Top inhibition %” value [15] was 22.72%. For the same compound, the Top inhibition % ([16]; 96 hours) was 35.7%, the EC50 [16, 26] was greater than 30 µM and the EC50 [16, 27] was 5.4 µM. The Top inhibition % ([17]; 96 hours) was 40.1%, the EC50 [17, 26] was greater than 30 µM and the EC50 [17, 27] was 4.37 µM. For the same compound, the “Top inhibition %” value [18] was 36.67%, the Top inhibition % ([19]; 96 hours) was 51.4% and the EC50 [19, 26] was 16 µM. For the same compound, the EC50 [19, 27] was 8.11 µM, the “Top inhibition %” value [20] was 73.2% and the “Top inhibition %” value [21] was 28.9%. For the same compound, the “Top inhibition %” value [22] was 4.8%.
In the case of `CC(=O)O[C@@]12C[C@@H](C)[C@]3(O)C4C=C(C)C(=O)[C@@]4(O)CC(COC(=O)CC(N)C(=O)[O-])=C[C@H]3[C@@H]1C2(C)C.[Na+]` (some centres unmarked) [Compound K-101I], the “Top inhibition %” value [7] is reported as 29.3%, the “Top inhibition %” value [10] is reported as 10.8% and the “Top inhibition %” value [15] is reported as 17.60%. For the same compound, the “Top inhibition %” value [18] was 38.12%, the Top inhibition % ([23]; 96 hours) was 37.4% and the EC50 [23, 26] was greater than 30 µM. The EC50 [23, 27] was 1.51 µM, the Top inhibition % ([24]; 96 hours) was 48.3% and the EC50 [24, 26] was greater than 30 µM. For the same compound, the EC50 [24, 27] was 0.16 µM, the “Top inhibition %” value [20] was 82.2% and the “Top inhibition %” value [21] was 16.4%. The Top inhibition % [1] was 26.3%, the EC50 [1, 26] was greater than 30 µM and the EC50 [1, 27] was 6.04 µM. For the same compound, the “Top inhibition %” value [22] was 11.8%, the Top inhibition % ([25]; 96 hours) was 25.0% and the EC50 [25, 26] was greater than 30 µM. For the same compound, the EC50 [25, 27] was 6.64 µM.
